Key:
Malassezia furfur = experiment: Anti-fungal efficacy, germ count reduction; assay type: cell-based; details: 0.12%
Description: Assay of the anti-fungal efficacy of zinc pyrithione, piroctone, climbazole and sclareolide on Malassezia furfur was assayed.

Malassezia restricta = experiment: Broth microdilution (MIC) assay, resazurin fluorescence; assay type: cell-based
Description: Sclareolide antifungal potential on Malassezia restricta was evaluated by the broth microdilution method.
Method: Malassezia restricta was routinely grown on modified Leeman-Notman (mLN) agar. The broth microdilution assay was performed following EUCAST guidelines (www.eucast.org) with slight modifications. Between five and ten colonies were suspended in a modified RPMI 1640 media supplemented with resazurin at a D.O (Density Optical) of 0.1. In a 96 well plate, serial dilutions of sclareolide (0.00023% to 0.12%), zinc pyrithione (0.015%-0.0023%) and Ketoconazol (0.5-0.015 μg/ml) were prepared in modified RPMI 1640. An equal volume of Malassezia restricta inoculum was added to the test samples at different concentrations. Following 48 h-60 h of incubation at 34° C., resazurin fluorescence was analyzed at 530 nm and 590 nm.
Results are presented as relative fluorescence intensity compared to DMSO control. the MIC is defined as the lowest drug concentration that inhibited growth.

[1] = system: Pseudomonas aeruginosa ATCC 27950; details: cited from earlier work
total lipids = experiment: Total lipid content in ex vivo scalp skin biopsies (Nile Red staining); assay type: cell-based, human; details: 0.12%
Description: (§1) Method: CYP27B1 was assessed by immunohistochemistry with a specific antibody. Biopsies of healthy human scalp skin in culture were treated with sclareolide diluted at 0.12% in placebo (ceraphyl 368 (Ashland) applied once a day for 48 hours topically (20 μl/biopsy). Control biopsies received only ceraphyl 368. The immunostaining was performed using paraffin sections incubated in the presence of anti-CYP27B1 antibody (rabbit monoclonal, Abcam). After an hour and a half of incubation followed by rinses, the sections were incubated in the presence of the secondary anti-rabbit antibody coupled with a fluorophore (Alexa Fluor® 488, Invitrogen). The sections were then examined under a fluorescence microscope (Nikon Eclipse Ni-E microscope). CYP27B1 expression was then observed (using NiS-AR Nikon acquisition software) and quantified by image analysis (Volocity® image analysis software, Improvision).
Method: total lipids were assessed by fluorescent staining by using the fluorescent dye Nile Red. The treatment of the biopsies was the same than in example 4. […] The sections were then examined under a fluorescence microscope (Nikon Eclipse Ni-E microscope). Red fluorescence was then observed (using NiS-AR Nikon acquisition software) and quantified by image analysis (Volocity® image analysis software, Improvision).

keratin 10 = experiment: Keratin 10 expression in ex vivo scalp skin biopsies (immunohistochemistry); assay type: cell-based, human; details: 0.12%
Description: as §1
Method: Keratin 10 was assessed by immunohistochemistry. The protocol was the same as in example 4 with the use of anti-keratin 10 antibody (rabbit monoclonal, Abcam).

[2] = system: Staphylococcus aureus ATCC 25923; details: cited from earlier work
[3] = Solubility in surfactant solution (12% Sodium laureth sulfate/2% Cocamidopropyl betaine); assay type: physicochemical; details: 12% Sodium laureth sulfate (SLES)/2% Cocamidopropyl betaine (CAPB), 1 hour stirring
[4] = system: Enterococcus faecalis ATCC 29212; details: cited from earlier work
[5] = system: Escherichia coli ATCC 25922; details: cited from earlier work
CYP27B1 = CYP27B1 expression in ex vivo scalp skin biopsies (immunohistochemistry); assay type: cell-based, human
Description: as §1

[6] = 48 h-60 h incubation at 34° C., vs DMSO control

For `CC(C)(C)C(=O)C(Oc1ccc(Cl)cc1)n1ccnc1` (stereo not shown) [Climbazole, climbazole], the “Reduction % (6 h)” value (Malassezia furfur) was 38.5% and the “Reduction % (24 h)” value (Malassezia furfur) was 33.80%.
With `Cc1cc(CC(C)CC(C)(C)C)n(O)c(=O)c1` (stereo not shown) [OCT, piroctone] the “Reduction % (6 h)” value (Malassezia furfur) was 15.4% and the “Reduction % (24 h)” value (Malassezia furfur) was 35.30%.
In the case of zinc pyrithione [ZPT], the “inhibition of Malassezia restricta” value (Malassezia restricta; tested in parallel at the same concentrations) is reported as “high inhibition”, the “Reduction % (6 h)” value (Malassezia furfur) is reported as 47.4% and the “Reduction % (24 h)” value (Malassezia furfur) is reported as 93.10%.
In the case of `CC1(C)CCC[C@]2(C)[C@H]3CC(=O)O[C@]3(C)CC[C@@H]12` [sclareolide, Sclareolide], the “concentration at which growth of Malassezia restricta was completely inhibited (MIC)” value (Malassezia restricta; [6]) is reported as 0.12%, the “concentration from which growth of Malassezia restricta was significantly inhibited” value (Malassezia restricta; [6]) is reported as 0.001875% and the “Reduction % (6 h)” value (Malassezia furfur) is reported as 38.5%. The “Reduction % (24 h)” value (Malassezia furfur) was 32.40%, the antibacterial activity [1] was “good antibacterial activity” and the “increase in lipid labelling intensity” value (total lipids; 48-hour treatment, compared to placebo, significant) was “+46%”. For the same compound, the “Total lipid content (% placebo)” value (total lipids; 48 hours, placebo = 100%) was 146%, the “increase in keratin 10 labelling intensity” value (keratin 10; 48-hour treatment, compared to placebo, highly significant) was “+20%” and the “Keratin 10 expression (% placebo)” value (keratin 10; 48 hours, placebo = 100%) was 120%. For the same compound, the antibacterial activity [2] was “good antibacterial activity”, the “dissolution in surfactant solution” value [3] was “could not be dissolved” and the antibacterial activity [4] was “good antibacterial activity”. For the same compound, the antibacterial activity [5] was “good antibacterial activity”, the “CYP27B1 protein expression (% placebo)” value (CYP27B1; 0.12% in ceraphyl 368, topical once a day, 48 hours, placebo = 100%) was 138% and the “increase in CYP27B1 labelling intensity” value (CYP27B1; 0.12%, 48-hour treatment, compared to placebo, very significant) was “+38%”.
